One molecule from PMC11904033, “Lanatoside C activates the E3 ligase STUB1 to inhibit FOXP3 transcriptional activity and promote antitumor immunity” (EMBO Molecular Medicine, 2025) can be followed below.

For experiment [1], the target named is T1, STUB1 TPR domain (STUB1 1-130) (Homo sapiens, UniProt Q9UNE7).
T1 construct: N-terminal TPR domain, residues 1-130; ITC: His-tagged from E. coli BL21 (pET-T7-STUB1 1-130-His); thermal shift and point mutants: 1-130-3xFlag6xHis expressed in 293T cells
T1 sequence (Q9UNE7 1-130): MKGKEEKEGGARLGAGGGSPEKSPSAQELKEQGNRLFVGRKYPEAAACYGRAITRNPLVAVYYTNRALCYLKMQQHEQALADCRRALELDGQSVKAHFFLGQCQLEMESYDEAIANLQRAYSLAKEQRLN
The experiment can be described thus: isothermal titration calorimetry. It is filed as binding. The settings on record: read-out: Ka (converted). (In general: ITC needs no label: the signal is the heat of the interaction.)

Another experiment addresses T2, STUB1 (Homo sapiens, UniProt Q9UNE7).
T2 construct: full length (303 residues), HA-tagged, ectopically expressed in 293T cells, lysate
T2 sequence (Q9UNE7 1-303): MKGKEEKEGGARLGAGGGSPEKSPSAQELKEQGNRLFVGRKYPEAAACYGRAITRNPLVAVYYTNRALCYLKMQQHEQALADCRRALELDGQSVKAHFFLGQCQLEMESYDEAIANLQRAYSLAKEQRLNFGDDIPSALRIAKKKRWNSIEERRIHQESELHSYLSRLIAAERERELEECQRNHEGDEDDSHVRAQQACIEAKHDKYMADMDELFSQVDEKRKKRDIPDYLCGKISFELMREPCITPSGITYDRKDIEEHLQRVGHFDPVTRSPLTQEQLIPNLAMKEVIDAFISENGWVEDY
The experiment can be described thus: thermal shift in […] lysate (immunoblot); DARTS. It is filed as biochemical. The conditions noted are these: 10 uM Lac for 30 min in thermal shift; 30 uM Lac for 3 h in DARTS. Background: In western blotting, separated proteins are transferred to a membrane and probed.

Regarding `CC(=O)O[C@H]1C[C@H](O[C@H]2[C@@H](O)C[C@H](O[C@H]3[C@@H](O)C[C@H](O[C@H]4CC[C@@]5(C)[C@H](CC[C@@H]6[C@@H]5C[C@@H](O)[C@]5(C)[C@@H](C7=CC(=O)OC7)CC[C@]65O)C4)O[C@@H]3C)O[C@@H]2C)O[C@H](C)[C@H]1O[C@@H]1O[C@H](CO)[C@@H](O)[C@H](O)[C@H]1O` [Lanatoside C], the Kd in experiment [1] is 7.69 µM. On STUB1, the thermal shift result is listed as “Lac directly bound STUB1 as revealed in the thermal shift assay”.
